“Also recorded” adds a separate entry of the source.
Tests used:
Type in all cases: cell-based
[1] = tested on: DLD-1 colon cancer cells; assay: MTT proliferation assay, DLD-1
Method: (§1) The effects of test compounds on proliferation of various cancer cells was examined by 3-(4,5-dimethylthiazol-2-yl)-2,5-diphenyltetrazolium bromide (MTT, Sigma) assay in a dose dependent manner. In the MTT assay, colon, liver, cervix, ovary, and breast cancer cell lines were treated with test compounds at various concentrations. Living cancer cells reduce MTT to dark blue MTT formazan that would be measured by absorbance.
(§2) Colon cancer cells, HCT116, DLD-1 and HT29, cervix cancer cells, HeLa and CaSki, ovary cancer cells, SKOV-3, 2774 and OVCAR-3, liver cancer cells, SK-Hep-1, PLCPRF5 and HepG2, and breast cancer cells, ZR75-1 and MDA-MB 231 were seeded at an initial density of 3000 cells per well in 96-well plates. After attachment of cells to the walls of the wells, the medium containing fresh retinoid was treated with various concentrations (0.5 μM, 1 μM, 2.5 μM, 5 μM, 10 μM) for 48 hours. 50 μl of MTT solution (2 mg/ml in PBS) was added to cell culture media. The reaction micture was incubated at 37° C. in a 5% CO2 atmosphere for 4 hours. The supernatant was removed and 150 μl of DMSO was added. The optical density was measured spectrophotometrically at 550 nm. […] For other retinoid derivatives according to the present invention, absorbances were measured by this procedure and IC50 values, concentrations required for 50% growth inhibition, were determined.

[2] = tested on: PLCPRF5 liver cancer cells; assay: MTT proliferation assay, PLCPRF5
Method: as §1, §2

[3] = tested on: SKOV-3 ovary cancer cells; assay: MTT proliferation assay, SKOV-3; settings: ovarian cancer
Method: as §1, §2

[4] = tested on: AP-1 (c-Jun); assay: AP-1 CAT reporter assay (c-Jun cotransfection); settings: 1 μM; for suppression of AP-1 activity: Experimental Example 5; for repression of AP-1 activity: Experimental Example 10, text; for AP-1 reporter CAT expression, −c-Jun/−RARα: control = 1.0; for AP-1 reporter CAT expression, +c-Jun/+RARα / AP-1 reporter CAT expression, +c-Jun/−RARα: control = 5.0
Description: As the reporter gene, the CAT enzyme gene with a site recognizing AP-1 of collagenase was used.

[5] = tested on: MMP-1 mRNA expression; assay: RT-PCR of MMP-1 mRNA in HCT116; settings: HCT116, 1 μM; for inhibition of MMP-1 mRNA expression: 36 hours
Method: Previously, it was shown that the synthetic retinoid derivatives inhibit the transcriptional activity of AP-1. Also, it is well known that MMP (matrix metalloproteinase), a main target gene of AP-1 is involved in metastasis of cancer cells. Therefore, the inhibitive effects of the retinoid derivatives on metastasis of cancer was examined by RT-PCR analysis. Colon cancer HCT116 cells were treated with 1 μM retinoid for 36 hours. RNA was isolated from the cells and mRNA expression levels of MMP-1, -2 and -3 were analyzed by RT-PCR. […] As the control, GAPDH was used and it was confirmed that its expression was not affected by retinoid. Meanwhile, the expression level of MMP-3 was affected weakly by KCBG40, intermediately by KCBG41 but strongly by KCBG10 (FIG. 9).
RNA was isolated from the cells and mRNA expression levels of MMP-1, -2 and -3 were analyzed by RT-PCR (FIG. 14).

[6] = tested on: HCT116 colon cancer cells; assay: DNA fragmentation assay (agarose gel), HCT116; settings: for DNA ladder (DNA fragmentation): HCT116, 2.5, 5.0, 10 μM, 48 hours; for fragmentation of chromosomal DNA (agarose gel): Experimental Example 8, cells treated as above
Method: After treated with each retinoid derivative at various concentrations (2.5, 5.0, 10 μM) for 48 hours, HCT116 or MCF-7 cells were poured in 1 mL of PBS and centrifuged at a rate of 13,000 rpm at 4° C. for 1 min. The resulting cell pellets were resuspended in 700 μl of lysis buffer (500 mM Tris, 100 mM EDTA, 0.5% SDS) containing 17.5 μl of proteinase K (20 mg/ml), and incubated on 55° C. water bath for 3 hours. The lysates were mixed with 700 μl of phenol solution while slowly stirring and centrifuged at 12,000 rpm for 5 min. The supernatants were separated and extracted with phenol once more. The supernatants were mixed with 600 μl of 100% ethanol and 60 μl of 3M NaOAc (pH 7.0) and left at −20° C. for 2 hours. The supernatants were removed by centrifugation at 12,000 rpm for 10 min to obtain pellets. After 70% ethanol washing and drying, DNA pellet was resuspended in 100 μl of TE (Tris-EDTA) buffer and treated with RNase A. The obtained samples were electrophoresed for 2 hours at 75 V on 1.8% agarose gels.
In order to confirm the above results, DNA was separated from the cells treated as above and examined for DNA fragmentation by agarose gel electrophoresis (FIG. 13).

[7] = tested on: HT29 colon cancer cells; assay: MTT proliferation assay, HT29
Method: as §1, §2

[8] = tested on: OVCAR-3 ovary cancer cells; assay: MTT proliferation assay, OVCAR-3; settings: ovarian cancer
Method: as §1, §2

[9] = tested on: CaSki cervix cancer cells; assay: MTT proliferation assay, CaSki; settings: 48 hours, uterine cancer
Method: as §1, §2

[10] = tested on: HCT116 colon cancer cells; assay: Trypan blue surviving cell count, HCT116; settings: for relative surviving cells (%): trypan blue
Description: Surviving cells, which had not be stained by trypan blue were counted and the results are shown in Table 3 as relative surviving cells (%).

[11] = tested on: HCT116 cells; assay: In vitro matrigel invasion assay, HCT116; settings: HCT116, 1 μM, 8 hours, matrigel-coated filter
Method: Meanwhile, to determine the effect of KCBG60 on the invasion potential of HCT116 cells, in vitro assay was performed. […] After cultivation for a predetermined period of time, the number of cells migrating to lower side of the filter was measured to determin the invasion level (FIG. 15).

Compound	IC50 ([1]; 48 hours) [µM]	IC50 ([2]; 48 hours) [µM]	IC50 ([3]; 48 hours) [µM]	suppression of AP-1 activity [4] [%]	inhibition of MMP-1 mRNA expression [5]	DNA ladder (DNA fragmentation) [6]	IC50 ([7]; 48 hours) [µM]	IC50 ([8]; 48 hours) [µM]	IC50 [9] [µM]	repression of AP-1 activity [4]	AP-1 reporter CAT expression, −c-Jun/−RARα [4]	AP-1 reporter CAT expression, +c-Jun/+RARα [4]	AP-1 reporter CAT expression, +c-Jun/−RARα [4]	relative surviving cells (%) ([10]; HCT116, 0.5 μM)	relative surviving cells (%) ([10]; HCT116, 1 μM)	relative surviving cells (%) ([10]; HCT116, 5 μM)	relative surviving cells (%) ([10]; HCT116, 10 μM)	fragmentation of chromosomal DNA (agarose gel) [6]	reduction of the number of invaded cells [11]	further results
CCCC(=O)Oc1cc(O)ccc1NC(=O)/C=C(C)/C=C/C=C(C)/C=C/C1=C(C)CCCC1(C)C [KCBG10, 2.2-[(2E,4E,6E,8E)-3,7-Dimethyl-9-(2,6,6-trimethylcyclohex-1-enyl)-nona-2,4,6,8-tetraenoylamino]-5-hydroxyphenylbutanoate]	6	12	0.5	~50	weakly	DNA band of the ladder shape caused by DNA fragmentation was well detected	6	0.8	0.5											
CCCC(=O)Nc1cc(NC(=O)/C=C(C)/C=C/C=C(C)/C=C/C2=C(C)CCCC2(C)C)ccc1O [KCBG41, (2E,4E,6E,8E)-[3,7-dimethyl-9-(2,6,6-trimethylcyclohex-1-enyl)-nona-2,4,6,8-tetraenoylamino]-(3-butyrylamino-4-hydroxy)phenylamide]	1.5		3	~50	strongly	DNA band of the ladder shape caused by DNA fragmentation was well detected; also recorded: at a similar concentration showed DNA fragmentation	1.2	3.7	3											
phenyl butylate										did not affect	1.0	5.3	4.7	103	103	95	90	did not induce any fragmentation of chromosomal DNA	did not show invasion inhibiting effect	
CC1=C(/C=C/C(C)=C/C=C/C(C)=C/C(=O)Nc2ccc(O)cc2)C(C)(C)CCC1 [HPR, (2E,4E,6E,8E)-[3,7-dimethyl-9-(2,6,6-trimethylcyclohex-1-enyl)-nona-2,4,6,8-tetraenoylamino]-4-hydroxyphenylamide]	9	20	2		affected very little	did not show any DNA ladder	8	8	2		0.7	2.2	3.7	91	70	45	13			
CCCC(=O)Oc1ccc(NC(=O)/C=C(C)/C=C/C=C(C)/C=C/C2=C(C)CCCC2(C)C)cc1 [KCBG60]										about 50%	0.6	2.4	3.6	90	75	45	10	DNA ladder caused by fragmentation of chromosomal DNA was detected	50%	concentration at which inhibition of proliferation began ([10]; HCT116): 0.5 µM; inhibition of proliferation ([10]; HCT116, 10 μM): more than 90%; MMP-1 mRNA reduction compared to ATRA and phenyl butylate ([5]; 24 hours): two times increased; reduction of MMP-1 mRNA level ([5]; 24 hours): about 50%
CC1=C(/C=C/C(C)=C/C=C/C(C)=C/C(=O)O)C(C)(C)CCC1 [ATRA, All-trans-retinoic acid, reference compound]											0.6	2.0	3.5					DNA ladder caused by fragmentation of chromosomal DNA was detected	40%	IC50 ([1]; Homo sapiens, DLD-1, 48 hours): 20 µM; IC50 ([2]; Homo sapiens, PLC-PRF-5, 48 hours): > 500 µM; IC50 ([3]; Homo sapiens, SK-OV-3, 48 hours): > 100 µM; inhibition at 10 µM ([10]; Homo sapiens, HCT-116, HCT116, 10 μM, read-out: inhibition of proliferation): 10 to 30%; IC50 ([7]; Homo sapiens, HT-29, 48 hours): 18 µM; IC50 ([8]; Homo sapiens, OVCAR-3, 48 hours): > 100 µM; IC50 ([9]; Homo sapiens, Ca-Ski): 20 µM
